Measured values: US10316371B2, “Screening methods for identifying specific Staphylococcus aureus inhibitors” (TRANA DISCOVERY, INC., priority 2011, dated 2019)
≈ marks a conversion by molar mass, not a printed value. Where two headings read alike, the source gives them in different places.

Assays:
E. coli 25922 = test: MIC; type: cell-based; conditions: Escherichia coli
K. pneumoniae UMM = test: MIC; type: cell-based; conditions: Klebsiella pneumoniae
[1] = test system: SA USA 300 (Methicillin-Resistant Staphylococcus aureus USA300); test: MIC; type: cell-based
Protocol: (§1) The strains included Staphylococcus aureus, Methicillin Resistant (ATCC 33591), Methicillin-Resistant Staphylococcus aureus USA300, Staphylococcus aureus 158, Staphylococcus aureus 22, Staphylococcus aureus 2, Staphylococcus aureus (ATCC 29213), and Staphylococcus aureus 182.
(§2) A series of compounds were evaluated for their activity against drug resistant S. aureus, including MSSA and MRSA strains.

[2] = test system: SA 33591 (Staphylococcus aureus, Methicillin Resistant (ATCC 33591)); test: MIC; type: cell-based
Protocol: as §1, §2

[3] = test system: SA 182 (Staphylococcus aureus 182); test: MIC; type: cell-based
Protocol: as §1, §2

[4] = test system: SA 2 (Staphylococcus aureus 2); test: MIC; type: cell-based
Protocol: as §1, §2

[5] = test system: SA 22 (Staphylococcus aureus 22); test: MIC; type: cell-based
Protocol: as §1, §2

[6] = test system: SA 158 (Staphylococcus aureus 158); test: MIC; type: cell-based
Protocol: as §1, §2

[7] = test system: SA 29213 (Staphylococcus aureus (ATCC 29213)); test: MIC; type: cell-based
Protocol: as §1, §2

K. pneumoniae 700603 = test: MIC; type: cell-based; conditions: Klebsiella pneumoniae
E. coli ESBL 4 = test: MIC; type: cell-based; conditions: Escherichia coli, ESBL4
E. faecalis 29212 = test: MIC; type: cell-based; conditions: Enterococcus faecalis
Protocol: (§3) The compounds were re-tested against other bacteria, including Staphylococcus epidermidis (ATCC 35984), Staphylococcus epidermidis (MRSE), E. faecium 134529, E. faecium 145494, […], E. faecium 161651, S. pneumoniae 49619, and S. pneumoniae 149389.
as §2

S. epidermidis MRSE 01 = test: MIC; type: cell-based; conditions: Staphylococcus epidermidis
Protocol: as §3, §2

E. faecium 134529 = test: MIC; type: cell-based; conditions: Enterococcus faecium
Protocol: as §3, §2

S. pneumoniae 49619 = test: MIC; type: cell-based; conditions: Streptococcus pneumoniae
Protocol: as §3, §2

S. epidermidis 35984 = test: MIC; type: cell-based; conditions: Staphylococcus epidermidis
Protocol: as §3, §2

E. faecalis 161651 = test: MIC; type: cell-based; conditions: Enterococcus faecalis
Protocol: as §3, §2

S. pneumoniae 149389 = test: MIC; type: cell-based; conditions: Streptococcus pneumoniae
Protocol: as §3, §2

E. faecium 145494 = test: MIC; type: cell-based; conditions: Enterococcus faecium
Protocol: as §3, §2

[8] = test system: S. aureus specific Arg ASL (anticodon stem loop) RNA oligomer interaction with programmed ribosomes; test: Fluorescence polarization assay of Arg ASL / programmed ribosome complex (HTS and dose response); type: binding, S. aureus Arg ASL; E. coli 70S ribosomes; conditions: 6 pt dose response, fluorescence polarization after 4 hours at 25° C., corrected for auto-fluorescence
Source text: The assay requires the following materials: • Ribosomes—isolated from E. coli or S. aureus • fMet tRNA (Sigma or Chemical Block, Moscow) • mRNA (including the S-D sequence, the “box” sequence, the codon for methionine, and the codon for arginine that is specific for S. aureus, AGA, optionally with additional base pairs to the left of the S-D sequence and/or to the right of the codon for arginine) • Fluorescently labeled Arg ASL oliogomer • Buffer—HAM20,β • 384 well high binding micro titer plates (Matrix Technologies #4319, sold by Fischer Scientific as cat #50823855), or other appropriate plates for use in high throughput screening • Filtration (Sartorius Stedium 100 Kdalton VC 1042) or centrifugation for complex purification • EDTA—negative control (binding antagonist) • Neomycin—A-site binding enhancer (binding agonist)
A ribosome complex was prepared using the above materials and then purified prior to use in the assay. The prepared complex can be stored in concentrated form at −80° C. The complexes were diluted in buffer and dispensed onto plates. […] Fluorescence polarization was measured at approximately 4 hours after dispensing onto the micro-titer plates.
ASL^Arg was first heated for 2 min at 90° C. in water, after addition of 1/10 V of 10× buffer incubation continued on ice for at least 10 min. Prior to complex formation 70S ribosomes and tRNA were reactivated in buffer for 5 min at 45° C. followed by 10 min at 37° C.; mRNA was heated in buffer at 37° C. for 5 min. • (1000 μl×(2 μM E. coli 70S ribosomes+10 μM mRNA-Arg+4 μM tRNA^fmet)/HAM20,β→30 min @ 37° C.,+1000 μl×(0.2 μM neomycin+[…]))→20 min @ 37° C., overnight on ice • Final complex: (2000 pm P+2000 pm ASL)/2 ml=1 μM P+1 μM ASL HAM20,β:
Preparation of Complexes: The purified complex was diluted in ice cold HAM20,β such that the total fluorescence was approximately 2,000,000 units per 5 μL.
20 μl of the diluted complex was added to all 384 well plates (except for blank wells, which received 20 μL of HAM20 only, without complex) using Multidrop dispenser after which the plates were incubated at 25° C. for 4 hours (target 4.5 hours for middle of batch). Plates were then analyzed for fluorescence polarization in Analyst HT fluorescence plate reader and the following instrument settings:
The parallel and perpendicular fluorescence values of experimental wells were automatically corrected for the corresponding values obtained from the blank wells. The fluorescence polarization was calculated as following: P=(I−Ip)/(I+Ip), wherein Ip—is perpendicular fluorescence and I—is parallel fluorescence.
The percent of effect of experimental compounds was calculated as following: %-Inh=(P0−Pc)/(P0−P100)*100, wherein P0—is average polarization in 0%—inhibition control wells, P100—is average polarization in 100%—inhibition control wells, and Pc—is polarization in compound well.
The 3 sigma HTS hits were cherry picked and retested in 6 pt dose response format, using 3× serial dilution and the top nominal concentration of 100 uM.
The compounds were serially diluted in 10% DMSO and plated into 384 well plates (in a volume of 5 μL) to achieve the nominal final concentration raging from 100 μM to 0.4 μM. The plates received 20 μl of the diluted complex following incubation at 25° C. for 4 hours. Plates were then analyzed for fluorescence polarization as described above (see HTS section).
In parallel, the compounds were tested for auto-fluorescence. To this end, the compounds were plated (using the same dilution protocol) into 384 well plates. The plates received 20 μL of the HAM20 assay buffer only (without complex). The plates were incubated for 4 hrs and then were analyzed for fluorescence polarization as described above.

Mammalian Cell Toxicity [9] = type: cell-based; conditions: mouse, 3T3 cells
Mammalian Cell Toxicity [10] = type: cell-based; conditions: human, MRC5 cells
[11] = K. pneumoniae UMM, read-out: MIC
[12] = ATCC33591, SA 33591, read-out: MIC
[13] = ATCC29213, SA 29213, read-out: MIC
[14] = K. pneumoniae 700603, read-out: MIC
[15] = E. faecalis 29212, read-out: MIC
[16] = S. epidermidis MRSE 01, read-out: MIC
[17] = E. faecium 134529, read-out: MIC
[18] = S. pneumoniae 49619, read-out: MIC
[19] = S. epidermidis 35984, read-out: MIC
[20] = E. faecalis 161651, read-out: MIC
[21] = S. pneumoniae 149389, read-out: MIC
[22] = E. faecium 145494, read-out: MIC

| MIC (E. coli 25922; E. coli 25922, read-out: MIC) [µg/mL] | MIC (K. pneumoniae UMM; [11]) [µg/mL] | MIC ([1]; SA USA 300, read-out: MIC) [µg/mL] | MIC [2, 12] [µg/mL] | MIC ([3]; SA 182, read-out: MIC) [µg/mL] | MIC ([4]; SA 2, read-out: MIC) [µg/mL] | MIC ([5]; SA 22, read-out: MIC) [µg/mL] | MIC ([6]; SA 158, read-out: MIC) [µg/mL] | MIC [7, 13] [µg/mL] | MIC (K. pneumoniae 700603; [14]) [µg/mL] | MIC (E. coli ESBL 4; E. coli ESBL 4, read-out: MIC) [µg/mL] | MIC (E. faecalis 29212; [15]) [µg/mL] | MIC (S. epidermidis MRSE 01; [16]) [µg/mL] | MIC (E. faecium 134529; [17]) [µg/mL] | MIC (S. pneumoniae 49619; [18]) [µg/mL] | MIC (S. epidermidis 35984; [19]) [µg/mL] | MIC (E. faecalis 161651; [20]) [µg/mL] | MIC (S. pneumoniae 149389; [21]) [µg/mL] | SMILES | CC50 (Mammalian Cell Toxicity [9]) [µg/mL] | CC50 (Mammalian Cell Toxicity [10]) [µg/mL] | also measured |
| --- | --- | --- | --- | --- | --- | --- | --- | --- | --- | --- | --- | --- | --- | --- | --- | --- | --- | --- | --- | --- | --- |
| > 128 | > 128 | 128 (≈ 328 µM) | > 128 | 128 (≈ 328 µM) | 128 (≈ 328 µM) | 128 (≈ 328 µM) | 128 (≈ 328 µM) | 128 (≈ 328 µM) | > 128 | > 128 | 128 (≈ 328 µM) | > 128 | > 128 | 32 (≈ 82 µM) | > 128 | 128 (≈ 328 µM) | 128 (≈ 328 µM) | COc1ccc2c(c1)c(=O)oc1c(C)c(OC(C(=O)O)c3ccccc3)ccc12 (stereo not drawn) [Compound #211, [(8-methoxy-4-methyl-6-oxo-6H-benzo[c]chromen-3-yl)oxy](phenyl)acetic acid] | 28 (≈ 71.7 µM) | 26 (≈ 66.6 µM) | MIC (E. faecium 145494; [22]): > 128 µg/mL; IC50 [8]: agonist |
| – | – | – | – | – | – | – | – | – | – | – | – | – | – | – | – | – | – | CC[n+]1c(C=CC=CN(C(C)=O)c2ccccc2)sc2ccccc21.[I-] [Compound #928, 2-{4-[acetyl(phenyl)amino]-1,3-butadien-1-yl}-3-ethyl-1,3-benzothiazol-3-ium iodide] | 20 to 64 | 20 to 64 | MIC (E. coli 25922; 25922): > 128 µg/mL; MIC (K. pneumoniae UMM): > 128 µg/mL; MIC [1]: 64 µg/mL; MIC ([2]; ATCC33591): 128 µg/mL; MIC [3]: > 128 µg/mL; MIC [4]: 128 µg/mL; MIC [5]: 64 µg/mL; MIC [6]: 128 µg/mL; MIC ([7]; ATCC29213): 64 µg/mL; MIC (K. pneumoniae 700603; 700603): > 128 µg/mL; MIC (E. coli ESBL 4): > 128 µg/mL; MIC (E. faecalis 29212; 29212): 128 µg/mL; MIC (S. epidermidis MRSE 01; MRSE): 64 µg/mL; MIC (E. faecium 134529; 134529): 128 µg/mL; MIC (S. pneumoniae 49619; 49619): > 128 µg/mL; MIC (S. epidermidis 35984; 35984): 128 µg/mL; MIC (E. faecalis 161651; 161651): 128 µg/mL; MIC (S. pneumoniae 149389; 149389): > 128 µg/mL; MIC (E. faecium 145494; 145494): 128 µg/mL; IC50 [8]: agonist |
| > 128 | > 128 | 64 (≈ 194 µM) | > 128 | 128 (≈ 387 µM) | 32 (≈ 96.8 µM) | 64 (≈ 194 µM) | 128 (≈ 387 µM) | 64 (≈ 194 µM) | > 128 | > 128 | 128 (≈ 387 µM) | 128 (≈ 387 µM) | 64 (≈ 194 µM) | 64 (≈ 194 µM) | > 128 | 128 (≈ 387 µM) | 64 (≈ 194 µM) | CN1CCN(c2nc(C=Cc3ccccc3)nc3ccccc23)CC1 [Compound #096, 4-(4-methyl-1-piperazinyl)-2-(2-phenylvinyl)quinazoline] | 51.5 (≈ 156 µM) | 62 (≈ 188 µM) | MIC (E. faecium 145494; [22]): 128 µg/mL (≈ 387 µM); IC50 ([8]; read-out: IC50): 91 µM |
